Patent US20090233868A1, “Small antiviral peptides against hepatitis C virus” (priority 2005, published 2009)
Where no end group is shown, it is not given here.

Assays:
[1] = test system: Polio virus IRES function; format: biochemical; details: at higher concentration (15, 30, 60 μM tested); FIG. 5E
[2] = test system: IRES mediated translation of hepatitis A virus; format: biochemical
[3] = test system: HCV IRES mediated translation; assay: In vitro translation of capped HCV bicistronic RNA in RRL; details: 15, 30, 60 μM peptide; FIG. 5D
[4] = test system: cap-dependent translation; assay: In vitro translation of capped Luciferase RNA in RRL; format: biochemical, rabbit; details: 15, 30, 60 μM peptide; FIG. 5C
[5] = test system: HCV IRES mediated translation; assay: In vitro translation of uncapped HCV-IRES-Luc monocistronic RNA in rabbit reticulocyte lysate; format: biochemical, hepatitis C virus; details: RRL; for IC50: uncapped HCV IRES-Luc RNA, data not shown, read-out: IC50 for inhibition of HCV IRES mediated translation
[6] = test system: HCV IRES mediated translation; assay: HCV bicistronic construct luciferase assay in Huh7 cells with arginine-tagged peptides; format: cell-based, hepatitis C virus; details: 2 μM peptide, 4 hours or 6 hours
[7] = test system: HCV monocistronic replicon; assay: HCV negative strand real time PCR in Huh7 cells harboring HCV monocistronic replicon; format: cell-based, hepatitis C virus
Huh7 cells = assay: Internalization of fluorescein labeled hexa-arginine-tagged peptides; format: cell-based; details: fluorescein tagged peptide, 3 hours incubation; FIG. 6B
HCV IRES RNA = assay: UV-crosslinking assay with [32P] labeled HCV IRES RNA; format: binding, hepatitis C virus; details: 2 μM and 4 μM peptide; FIG. 6A

Substance | Inhibition of Polio virus IRES function [1] | Inhibition of IRES mediated translation of hepatitis A virus [2] | Inhibition of HCV IRES (Fluc) vs cap dependent (Rluc) translation of bicistronic RNA [3] | Inhibition of capped-Luciferase RNA translation (cap-dependent) [4] | IC50 [5] [µM] | Translation inhibitory activity on HCV IRES-Luc RNA ([5]; 30 and 60 μM (FIG. 3C) or 15, 30 and 60 μM (FIG. 5A, 5B)) | Inhibition of HCV IRES mediated translation over the control in Huh7 cells [6] | Decrease in levels of HCV negative strand RNAs compared to untreated cells ([7]; 4 μM peptide added at 0 and 12th hour, RNA at 24th hour) [%] | Inhibitory activity on HCV negative strand synthesis ([7]; 10 μM peptide, data not shown) | Internalization into Huh7 cells (fluorescence microscope) (Huh7 cells) | RNA binding activity of hexa-arginine tagged peptides (UV cross-linking) (HCV IRES RNA)
KYKETDL [LaR2C-N7] | significant inhibition | failed to inhibit | selective inhibition of HCV IRES mediated translation | did not show significant inhibition | ~40 | only slightly weaker than the 24-mer peptide |  |  |  |  | 
KYKETDLLILFKDDYFAKKNEERK [LaR2C] |  |  |  |  | 30 |  |  |  |  |  | 
RRRRRRKYKETDL [Arg-LaR2C-N7] |  |  |  |  |  |  | up to 70% | ~50 | considerable increase in the inhibitory activity | internalized inside Huh7 cells | showed RNA binding activity
